The text below walks through data of patent publication US10851065B2 (Eisai R&D Management Co., Ltd., priority 2015, dated 2020).

The term GI50 denotes the concentration at which growth is held to half of that of the control.

Experiment [1] concerns MCF7-WT cells (MCF7 ER-alpha wildtype). Put plainly: In vitro proliferation (viability) assay, CellTiter-Glo, MCF7-WT cells. Format: cell-based. The settings on record: Homo sapiens; MCF7-WT cells, 6 days, CTG vs day 0; mean ± SD-type spread (n); read-out: GI50 WT.
Experiment [2] concerns MCF7-Y537S cells (MCF7 ER-alpha Y537S mutant). Put plainly: In vitro proliferation (viability) assay, CellTiter-Glo, MCF7-Y537S cells. Format: cell-based. The settings on record: Homo sapiens; MCF7-Y537S cells, 6 days, CTG vs day 0; mean ± SD-type spread (n); read-out: GI50 MUT (Y537S). In a few lines:
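Stable lentiviral MCF7 lines expressing WT or Y537S ESR1 seeded at 1500 cells/well; next day dosed with 10-point 1:4 dilutions in triplicate, with media/compound refreshed on day 3. CellTiter-Glo luminescence on day 6 compared with a day 0 reading to give GI50.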
On the technique in general: Cellular ATP, detected with luciferase, serves as a proxy for viable cell number.

On to `CC/C(=C(/c1ccc(OCCNC/C=C/C(=O)N(C)C)cc1)c1ccc2[nH]nc(F)c2c1)c1cc(F)cc(C(F)(F)F)c1` [Compound 3, (E)-4-((2-(4-((E)-1-(3-fluoro-1H-indazol-5-yl)-2-(3-fluoro-5-(trifluoromethyl)phenyl)but-1-en-1-yl)phenoxy)ethyl)amino)-N,N-dimethylbut-2-enamide], for which the GI50 is 6.95 ± 2.47 nM in experiment [1] and 159 ± 91.8 nM in experiment [2].
Turning to `CC/C(=C(/c1ccc(OCCNCC/C=C/C(=O)N(C)C)cc1)c1ccc2[nH]nc(F)c2c1)c1ccc(F)cc1Cl` [Compound 85], the GI50 in experiment [1] amounted to 1.56 ± 0.56 nM; in experiment [2], 28.4 ± 2.9 nM.
Consider `CC/C(=C(/c1ccc(OC(C)C(C)NC/C=C/C(=O)N(C)C)cc1)c1ccc2[nH]ncc2c1)c1ccccc1` (centres unmarked) [Compound 96, (E)-4-((3-(4-((E)-1-(1H-indazol-5-yl)-2-phenylbut-1-en-1-yl)phenoxy)butan-2-yl)amino)-N,N-dimethylbut-2-enamide], for which the values for the GI50 in experiment [1] and in experiment [2] were 2 nM and 27.2 nM, respectively.
In the same order, the values of `O=C(/C=C/CNCCOc1ccc(/C(=C(\c2ccccc2)C2CCC2)c2ccc3[nH]nc(F)c3c2)cc1)N1CCC1` [Compound 40, (E)-1-(azetidin-1-yl)-4-((2-(4-((E)-2-cyclobutyl-1-(3-fluoro-1H-indazol-5-yl)-2-phenylvinyl)phenoxy)ethyl)amino)but-2-en-1-one] are 7.52 ± 4.52 nM and 94.5 ± 20.8 nM.
In the case of `CC/C(=C(/c1ccc(OCCNC/C=C/C(=O)N(C)C)cc1)c1ccc2[nH]nc(F)c2c1)c1ccncc1` [Compound 52, (E)-4-((2-(4-((E)-1-(3-fluoro-1H-indazol-5-yl)-2-(pyridin-4-yl)but-1-en-1-yl)phenoxy)ethyl)amino)-N,N-dimethylbut-2-enamide], the GI50 is 2.9 nM in experiment [1] and 85.8 nM in experiment [2].
As to `CC/C(=C(/c1ccc(OCCNC/C=C/C(=O)N(C)C)cc1)c1ccc2[nH]nc(F)c2c1)c1ccccc1F` [Compound 43, (E)-4-((2-(4-((E)-1-(3-fluoro-1H-indazol-5-yl)-2-(2-fluorophenyl)but-1-en-1-yl)phenoxy)ethyl)amino)-N,N-dimethylbut-2-enamide], the GI50 was 1.94 nM in experiment [1] and 47.3 nM in experiment [2].
In the same order, the values of `CN(C)C(=O)/C=C/CNCCOc1ccc(/C(=C(\c2ccccc2)C2CCC2)c2ccc3[nH]ncc3c2F)cc1` [Compound 24, (E)-4-((2-(4-((E)-2-cyclobutyl-1-(4-fluoro-1H-indazol-5-yl)-2-phenylvinyl)phenoxy)ethyl)amino)-N,N-dimethylbut-2-enamide] are 1.05 ± 0.3 nM and 19.9 ± 3.58 nM.
For `CC/C(=C(/c1ccc(OCC(C)NC/C=C/C(=O)N(C)C)cc1)c1ccc2[nH]ncc2c1)c1ccccc1` (centres unmarked) [Compound 92, (E)-4-((1-(4-((E)-1-(1H-indazol-5-yl)-2-phenylbut-1-en-1-yl)phenoxy)propan-2-yl)amino)-N,N-dimethylbut-2-enamide], the GI50 in experiment [1] came out at 2.3 nM; in experiment [2], 26.9 nM.
As to `CN(C)C(=O)/C=C/CNCCOc1ccc(/C(=C(/CC(F)(F)F)c2ccncc2F)c2ccc3[nH]nc(F)c3c2)cc1` [Compound 61, (E)-N,N-dimethyl-4-((2-(4-((E)-4,4,4-trifluoro-1-(3-fluoro-1H-indazol-5-yl)-2-(3-fluoropyridin-4-yl)but-1-en-1-yl)phenoxy)ethyl)amino)but-2-enamide], the GI50 in experiment [1] came out at 0.3 ± 0.1 nM; in experiment [2], 4 ± 1.5 nM.
As to `CC/C(=C(/c1ccc(OCCNC/C=C/C(=O)N(C)C)cc1)c1ccc2[nH]ncc2c1)c1ccccc1OC(F)(F)F` [Compound 33, (E)-4-((2-(4-((E)-1-(1H-indazol-5-yl)-2-(2-(trifluoro-methoxy)phenyl)but-1-en-1-yl)phenoxy)ethyl)amino)-N,N-dimethylbut-2-enamide], the GI50 was 2.5 nM in experiment [1] and 29.3 nM in experiment [2].
On to `CC/C(=C(/c1ccc(OCCNC/C=C/C(=O)N(C)CC)cc1)c1ccc2[nH]ncc2c1)c1ccccc1` [Compound 16, (E)-4-((2-(4-((E)-1-(1H-indazol-5-yl)-2-phenylbut-1-en-1-yl)phenoxy)ethyl)amino)-N-ethyl-N-methylbut-2-enamide], for which the values for the GI50 in experiment [1] and in experiment [2] were 1.66 nM and 21.9 nM, respectively.
In the same order, the values of `CC/C(=C(/c1ccc(OCCNC/C=C/C(=O)N(C)C)cc1)c1ccc2[nH]ncc2n1)c1ccccc1` [Compound 63, (E)-N,N-dimethyl-4-((2-(4-((E)-2-phenyl-1-(1H-pyrazolo[4,3-b]pyridin-5-yl)but-1-en-1-yl)phenoxy)ethyl)amino)but-2-enamide] are 2.8 nM and 65.7 nM.
With `CC/C(=C(/c1ccc(OCCNC/C=C/C(=O)N(C)C)cc1)c1ccc2[nH]ncc2c1)c1ccc(F)cc1Cl` [Compound 74, (E)-4-((2-(4-((E)-2-(2-chloro-4-fluorophenyl)-1-(1H-indazol-5-yl)but-1-en-1-yl)phenoxy)ethyl)amino)-N,N-dimethylbut-2-enamide], the GI50 is 1.8 ± 0.5 nM in experiment [1] and 28.8 ± 14 nM in experiment [2].
Take `CC/C(=C(/c1ccc(OCCNC/C=C/C(=O)N(C)C)cc1)c1ccc2[nH]ncc2c1F)c1ccccc1` [Compound 4, (E)-4-((2-(4-((E)-1-(4-fluoro-1H-indazol-5-yl)-2-phenylbut-1-en-1-yl)phenoxy)ethyl)amino)-N,N-dimethylbut-2-enamide]: the values for the GI50 in experiment [1] and in experiment [2] were 4.55 ± 3.34 nM and 36.3 ± 16 nM, respectively.
Take `CC/C(=C(/c1ccc(OCCNC/C=C/C(=O)N2CCOCC2)cc1)c1ccc2[nH]ncc2c1)c1ccccc1` [Compound 15, (E)-4-((2-(4-((E)-1-(1H-indazol-5-yl)-2-phenylbut-1-en-1-yl)phenoxy)ethyl)amino)-1-morpholinobut-2-en-1-one]: the concentration for 50% growth inhibition (GI50) was found to be 1.84 ± 1.09 nM in experiment [1] and 25.5 ± 13.8 nM in experiment [2].
Regarding `CCC/C(=C(/c1ccc(OCCNC/C=C/C(=O)N(C)C)cc1)c1ccc2[nH]nc(F)c2c1)c1ccccc1` [Compound 77, (E)-4-((2-(4-((E)-1-(3-fluoro-1H-indazol-5-yl)-2-phenylpent-1-en-1-yl)phenoxy)ethyl)amino)-N,N-dimethylbut-2-enamide], the results for the 50% growth inhibitory concentration (GI50) in experiment [1] and in experiment [2] were 2.4 nM and 35 nM, respectively.
On the same counts, the results for `CC/C(=C(/c1ccc(OCCNC/C=C/C(=O)N(C)C)cc1)c1ccc2[nH]nc(F)c2c1)c1ccc(F)cc1F` [Compound 65, (E)-4-((2-(4-((E)-2-(2,4-difluorophenyl)-1-(3-fluoro-1H-indazol-5-yl)but-1-en-1-yl)phenoxy)ethyl)amino)-N,N-dimethylbut-2-enamide] are 4 nM and 66 nM.
In the same order, the values of `CC/C(=C(/c1ccc(OCCNC/C=C/C(=O)N(C)C)cc1)c1ccc2[nH]nc(F)c2c1)c1cccc(F)c1` [Compound 44, (E)-4-((2-(4-((E)-1-(3-fluoro-1H-indazol-5-yl)-2-(3-fluorophenyl)but-1-en-1-yl)phenoxy)ethyl)amino)-N,N-dimethylbut-2-enamide] are 4.91 nM and 180 nM.
With `CC/C(=C(/c1ccc(OCCNC/C=C/C(=O)N(C)C)nc1)c1ccc2[nH]nc(F)c2c1)c1ccccc1` [Compound 68, (E)-4-((2-((5-((Z)-1-(3-fluoro-1H-indazol-5-yl)-2-phenylbut-1-en-1-yl)pyridin-2-yl)oxy)ethyl)amino)-N,N-dimethylbut-2-enamide], the GI50 was found to be 2.8 nM in experiment [1] and 30.3 nM in experiment [2].
